pEC50, pIC50: −log10 of the molar value. The source made the active and inactive calls.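 Rule for the calls: active = compounds giving half or more protection of infected cells from virus-caused growth loss, again on retest; inactive = the rest.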
Tested on: CEM cells HIV-1 protection, formazan growth assay
Assay: NCI AIDS Antiviral Assay
Conditions: for pIC50: measured here: growth of uninfected CEM cells
Procedure, shortened: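 Screen of anti-HIV-1 activity in human CEM cells using a formazan-based growth measurement at five drug concentrations. Hits with 50% or greater protection were repeated, and confirmation required reproducible complete protection.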

## CC1=NN(C(=O)CC(=O)Nc2ccccc2Cl)C(=O)C1N=Nc1ccc(C(=O)O)cc1 (centres undefined)
  pEC50: < 3.70
  pIC50: 4.09

## CC(OC1C(N)C(O)OC(CO)C1O)C(=O)O (centres undefined)
  outcome: inactive

## CC1=CN2C(c3ccc(Cl)cc3)=NON(c3ccc(C)cn3)C2C=C1 (centres undefined)
  pEC50: < 4.99
  pIC50: < 4.99

## CC(C)N=C(N)NC#N
  pEC50: < 2.83
  pIC50: < 2.83

## Cc1nc(N)nc(N)c1N1CCN(c2ccc(S(=O)(=O)N(Cc3ccccc3)Cc3ccccc3)cc2)CC1
  pEC50: 7.30
  pIC50: 6.88

## COc1cc(Br)c(-c2coc3c(OC)c(OC)ccc3c2=O)cc1OC
  pEC50: < 4.30
  pIC50: < 4.30

## CCC(C)C(NC(=O)c1ccccc1SC(=O)CCC[n+]1ccccc1)C(N)=O (centres undefined)
  pEC50: < 4.12
  pIC50: 5.32

## CC1CCC(O)C(C(O)CC2CC(=O)NC(=O)C2)C1 (centres undefined)
  pEC50: < 3.70
  pIC50: < 3.70

## O=C(O)CCC(NC(=O)c1ccccc1)C(=O)O (centres undefined)
  outcome: inactive

## Cc1nc2ccc(S(=O)(=O)Nc3ccccc3Cl)cc2c(=O)n1NC(=O)CNc1ccccc1Cl
  pEC50: < 3.70
  pIC50: 3.77

## CC(=O)C1CC2=C(CCC1=O)CCC1(CC2)OCCO1 (centres undefined)
  outcome: inactive

## COc1ccccc1NC(=O)C1=C(C)NC(C)=C(C(=O)Nc2ccccc2OC)C1c1ccc(N(C)C)cc1
  pEC50: < 4.37
  pIC50: 4.53

## COc1ccc(N2C(=O)C3c4[nH]c5ccccc5c4C4CCCCCCCCCCC4C3C2=O)cc1 (centres undefined)
  pEC50: < 5.25
  pIC50: < 5.25

## O=C(O)C12CC=CCC1(C(=O)O)CC=CC2 (centres undefined)
  pEC50: < 3.70
  pIC50: < 3.70

## COc1ccc(NC(=O)CC(=O)N/N=C(/C)c2cc3cc(N=Nc4ccccc4Cl)ccc3oc2=O)cc1
  pEC50: < 5.01
  pIC50: < 5.01

## CC1CC(=O)Nc2ccc(N=NN(C)C)cc2N1C=O (centres undefined)
  pEC50: < 3.70
  pIC50: < 3.70

## Cc1cc2c(c(S(=O)(=O)c3ccc(Cl)cc3[N+](=O)[O-])c1)NCCC2
  pEC50: < 4.12
  pIC50: 4.56

## COc1cccc(NC(=S)Nn2c(C)nc3ccccc3c2=O)c1
  pEC50: < 3.98
  pIC50: < 3.98

## CC1c2ccccc2NC(=O)N1N1CCOCC1 (centres undefined)
  pEC50: < 3.70
  pIC50: < 3.70

## CCCCOC(=O)C1OC12CCCCC2 (centres undefined)
  pEC50: < 3.70
  pIC50: 3.82

## Clc1ccc2nc(-c3ccccc3)nc(Cl)c2c1
  outcome: inactive

## CCOP(=O)(OCC)OC1C=CC2CCC1C2 (centres undefined)
  pEC50: < 3.72
  pIC50: < 3.72

## C/C(=C\C(=O)OCCCCCCCC(N)=O)C(O)[C@@H]1OCC(C/C=C/[C@@H](C)[C@H](C)O)[C@@H](O)[C@H]1O (some centres undefined)
  pEC50: < 3.70
  pIC50: < 3.70

## O=c1[nH]c(C2CCCCC2)nc2cc(Cl)ccc12
  outcome: inactive

## CC(C)=CCC1(O)C(=O)c2ccccc2C1(O)C(=O)O (centres undefined)
  pEC50: < 3.70
  pIC50: < 3.70

## CCC(CO)Nc1nc2c(c(=O)n(C)c(=O)n2C)n1CCO (centres undefined)
  outcome: inactive

## O/N=C1\CSc2ccccc2C1
  pEC50: < 3.70
  pIC50: < 3.70

## CC(=O)n1nc(-c2ccc3ccccc3c2)nc1C
  pEC50: < 3.70
  pIC50: 4.10

## CO/C=C(/C#N)S(=O)(=O)/C(C#N)=C/OC
  pEC50: < 3.70
  pIC50: < 3.70

## COC(=O)c1ccc(-n2c(C)nc(=O)c(-c3ccccc3)c2C)cc1
  pEC50: < 4.00
  pIC50: < 4.00

## Cc1cccc(C)c1NC(=O)/C(Cc1nc2ccc([N+](=O)[O-])cc2[nH]c1=O)=N\NC(N)=O
  pEC50: < 3.38
  pIC50: 3.90

## CC1OC(Oc2c(-c3ccc(O)c(O)c3)oc3cc(O)cc(O)c3c2=O)C(O)C(O)C1O (centres undefined)
  outcome: inactive

## O=C(/C=C/c1ccc(Cl)c(Cl)c1)c1ccc(F)cc1
  pEC50: < 5.73
  pIC50: < 5.73

## CC1=C(C#N)C(=N)OC1(C)C1CC(=O)C=CC1=O (centres undefined)
  pEC50: < 3.70
  pIC50: 4.98

## COC1=CC(=O)C(=O)c2ccc(C)nc21
  outcome: inactive

## CCOC(=O)CC(=O)CSc1c(-c2ccccc2)c(=O)n(-c2ccccc2)c(=S)n1-c1ccccc1
  pEC50: < 3.70
  pIC50: 4.14

## Cc1cc2c(c(C(N)=O)c1C)-c1cccc(Cl)c1C2=O
  outcome: inactive

## O=C(CCCCCCCCC(=O)OCCCn1cc(C(=O)NC(=O)OCc2ccccc2)c(=O)[nH]c1=O)OCCCn1cc(C(=O)NC(=O)OCc2ccccc2)c(=O)[nH]c1=O
  pEC50: < 4.80
  pIC50: < 4.80

## O=C(O)c1cc2ccccc2c(N=Nc2ccc(/C=C/c3ccc(N=Nc4c(O)c(C(=O)O)cc5ccccc45)cc3S(=O)(=O)O)c(S(=O)(=O)O)c2)c1O
  pEC50: 5.07
  pIC50: 4.30

## NCCCNCCSSCc1ccccc1CSSCCNCCCN
  outcome: inactive

## CCOC(=O)COc1ccc(/C=C/C(=O)c2ccc(OC)cc2)cc1
  pEC50: < 3.70
  pIC50: 4.95

## CCOC1NC(=O)c2ccccc21 (centres undefined)
  outcome: inactive
  pIC50: < 3.70

## CC1NCC(O)C(O)C1O (centres undefined)
  pEC50: < 4.31
  pIC50: < 4.31

## O=[N+]([O-])c1cc[n+]([O-])cc1
  pEC50: < 2.85
  pIC50: 5.05

## CC(C)(C)c1nc2c(o1)C(=Nc1ccc(F)cc1)c1ccccc1C2=O
  outcome: inactive

## CC1(C)CCOC(=O)C(Cl)CC1Cl (centres undefined)
  pEC50: < 3.70
  pIC50: < 3.70

## COc1ccc(OC)c(CCCC(=O)O)c1
  pEC50: 7.20
  pIC50: < 3.70

## Cn1c2c(c3ccccc31)CCN(CCCN1CCN(c3cccc(Cl)c3)CC1)C2=O
  pEC50: < 4.78
  pIC50: < 4.78

## O=C1CCSSCCC(=O)NCCN1
  pEC50: < 4.65
  pIC50: < 4.65

## CSc1n[nH]c2n[nH]c(C)c12
  pEC50: < 3.70
  pIC50: 3.98

## COc1ccc(NS(=O)CCc2ccccc2)cc1 (centres undefined)
  pEC50: < 3.70
  pIC50: 4.64

## COc1nc2c(c(=O)n1C)N=C(c1ccccc1)[C@H](C(CC(=O)c1ccccc1)c1ccccc1)C(c1ccccc1)N2 (some centres undefined)
  outcome: inactive

## C#CCNC(CCCN=C(N)N)C(=O)O (centres undefined)
  pEC50: < 3.70
  pIC50: < 3.70

## COc1cc2cc3c(c(-c4ccc5c(c4)OCO5)c2c(OC)c1OC)COC3=O
  pEC50: < 4.46
  pIC50: 4.75

## C[N+]1(C)CN(c2ccccc2)C2(CCN(CCCC(=O)c3cccs3)CC2)C1=O
  pEC50: < 3.70
  pIC50: 4.26

## C[C@H](NC(=O)c1ccccc1SC(=O)CCCC[n+]1ccccc1)C(N)=O
  pEC50: 6.03
  pIC50: < 4.00

## Cn1c(-c2ccc(-c3cc(-c4cccs4)c(-c4cccs4)n3C)cc2)cc(-c2cccs2)c1-c1cccs1
  pEC50: < 3.70
  pIC50: < 3.70

## COc1cc(/C=C(\NC(=O)c2ccccc2)c2nc3[nH]c(=S)[nH]c(=O)c3[nH]2)cc(OC)c1OC
  outcome: inactive

## COc1ccc(C(=O)Nc2ccn(CCOC(=O)c3ccc(OC)cc3)c(=O)n2)cc1
  pEC50: < 4.35
  pIC50: < 4.35

## O=C(Oc1c(Br)cc(Br)cc1C(=O)Oc1ccccc1)C(=O)Oc1c(Br)cc(Br)cc1C(=O)Oc1ccccc1
  pEC50: < 3.70
  pIC50: 4.51

## C/C(=N/NC(=O)C[N+](C)(C)C)C(CN(C)C)C(=O)Nc1ccccc1 (centres undefined)
  pEC50: < 4.87
  pIC50: < 4.87

## Nc1ccc(SCc2ccc(C(=O)O)cc2[N+](=O)[O-])cc1
  pEC50: < 3.09
  pIC50: 3.47

## C=CCNC(=S)/N=C\c1c(C)[nH]n(-c2ccccc2)c1=O
  pEC50: < 4.00
  pIC50: 4.02

## O=c1ccc2cc(O)ccc2o1
  pEC50: < 3.70
  pIC50: < 3.70

## C=C1C(=O)C23OC2C1CCC(=O)C1(C)CC[C@H](OC(C)=O)C(C)(C)[C@H]1CC3=O (some centres undefined)
  pEC50: < 3.76
  pIC50: 5.64

## C/C(=N\Nc1ccccc1Br)c1cccc(/C(C)=N/Nc2ccccc2Br)n1
  pEC50: < 4.00
  pIC50: 4.07

## C[CH2][Ge]1([CH2]C)[CH2]CC2(CCN(CCCN(C)C)C2)C[CH2]1
  pEC50: < 3.60
  pIC50: 5.86

## CN(C)CCCOc1c(Br)cc(CCN(C)C)cc1Br
  outcome: inactive

## CCOC1(OCC)CC2C(=O)CCCC21OC(C)=O (centres undefined)
  pEC50: < 3.64
  pIC50: 3.88

## C[C@@H](CO)C1=C(O)c2ccc3c(c2C(=O)C1=O)CCCC3(C)C
  pEC50: < 3.70
  pIC50: 4.82

## CN1c2ccccc2NC(CC(=O)O)C2CC=CN21 (centres undefined)
  pEC50: < 3.02
  pIC50: 3.20

## CC1=NN2C(=O)CSC2=NC(C)(C)C1
  pEC50: 3.58
  pIC50: 2.93

## CC(CCC#CC(=O)O)OC1CCCCO1 (centres undefined)
  pEC50: < 3.70
  pIC50: < 3.70

## COc1ccc2c(c1OC)C(=O)O[C@@H]2C1c2cc3c(cc2CCN1C)OCO3 (some centres undefined)
  pEC50: < 3.61
  pIC50: < 3.61

## COC(=O)[C@H](Cc1ccccc1)NC(=O)N(CCN(CCC#N)C(=O)N[C@H](C(=O)OC)C(C)C)c1ccccc1
  pEC50: < 3.70
  pIC50: 4.08

## CN(C)Cc1cc(C(=O)/C=C/c2cccc(Cl)c2)cc(CN(C)C)c1O
  outcome: inactive

## O=C(CC(=O)N1N=C(n2ccc3ccccc32)CC1c1ccccc1)Nc1ccc(Cl)cc1 (centres undefined)
  pEC50: < 5.92
  pIC50: < 5.92

## O=C1C(c2ccccc2)=C2C(=C1c1ccccc1)c1cccc3cccc2c13
  outcome: inactive

## O=[N+]([O-])c1cc(C(F)(F)F)ccc1S(=O)(=O)N[C@@H]1CCCC[C@H]1NS(=O)(=O)c1ccc(C(F)(F)F)cc1[N+](=O)[O-]
  pEC50: < 3.70
  pIC50: 5.40

## C1=C\SS/C=C\SS/C=C\SS/C=C\SS/1
  pEC50: 4.89
  pIC50: 4.82

## Cc1c(O)nc(-n2[nH]c3c(c2=O)CCCC3)[nH]c1=O
  pEC50: < 3.70
  pIC50: < 3.70

## COc1cc2cc(C(=O)N3CC(CCl)c4c3cc(N(C)C)c3ccccc43)[nH]c2c(OC)c1OC (centres undefined)
  pEC50: < 6.70
  pIC50: 7.89

## COc1ccc2c(c1)[C@@H](NC(C)=O)CCc1cc(OC)c(OC)c(OC)c1-2
  pEC50: < 7.15
  pIC50: 7.96

## COc1ccc(/C=C2\CNC/C(=C\c3ccc(OC)cc3)C2=O)cc1
  pEC50: < 5.13
  pIC50: < 5.13

## Cc1cc(=O)n(/C=C/C(=O)O)c2ccccc12
  pEC50: < 3.70
  pIC50: < 3.70

## CC1(O)Cc2c(O)c3c(c(O)c2CC1O)C(=O)C=CC3=O (centres undefined)
  pEC50: < 4.89
  pIC50: 5.88

## Cc1cc(N(CCC#N)CCC#N)ccc1/C(N=Nc1ccc([N+](=O)[O-])cc1)=N\NC(=O)c1ccccc1
  pEC50: < 3.70
  pIC50: 4.79

## CN(C1=NCCO1)c1cccc2c1CCCC2
  pEC50: < 3.70
  pIC50: 5.35

## C(=Nc1cccnc1)c1ccc2ccccc2n1
  pEC50: < 4.09
  pIC50: 4.35

## O=C(CCCN1CCC2(CC1)C(=NC1CCCCC1)NC(=O)N2c1ccccc1)c1ccc(F)cc1
  pEC50: < 3.70
  pIC50: 4.03
